Read-outs that look alike come from different tables or passages of the source.
Assays:
[1] = tested on: H. influenzae; test: Example 5 CAP study, outcome by baseline pathogen; assay type: in vivo
Source text: (§1) Per-pathogen clinical cure rate and favorable microbiological outcome rate at TOC in the mMITTE and ME Populations;

[2] = tested on: S. pneumoniae; test: Example 5 CAP study, outcome by baseline pathogen; assay type: in vivo
Source text: as §1

[3] = tested on: E. coli; test: Example 5 CAP study, outcome by baseline pathogen; assay type: in vivo
Source text: as §1

[4] = tested on: H. parainfluenzae; test: Example 5 CAP study, outcome by baseline pathogen; assay type: in vivo
Source text: as §1

[5] = tested on: S. aureus; test: Example 5 CAP study, outcome by baseline pathogen; assay type: in vivo
Source text: as §1

[6] = tested on: H. influenzae; test: Example 4 CAP study, outcome by baseline pathogen; assay type: in vivo
Source text: as §1

[7] = tested on: S. pneumoniae; test: Example 4 CAP study, outcome by baseline pathogen; assay type: in vivo
Source text: as §1

[8] = tested on: H. parainfluenzae; test: Example 4 CAP study, outcome by baseline pathogen; assay type: in vivo
Source text: as §1

[9] = tested on: K. pneumoniae; test: Example 4 CAP study, outcome by baseline pathogen; assay type: in vivo
Source text: as §1

[10] = tested on: S. aureus; test: Example 4 CAP study, outcome by baseline pathogen; assay type: in vivo
Source text: as §1

[11] = tested on: Streptococcus pneumoniae; test: Integrated Phase 3 CABP studies, clinical cure by infecting pathogen; assay type: in vivo; conditions: ME patients
Method: (§2) In both treatment groups of CABP Study 1, two doses of oral clarithromycin (500 mg q12 h), were administered as adjunctive therapy starting on Study Day 1. No adjunctive macrolide therapy was used in CABP Study 2. Patients with new or progressive pulmonary infiltrate(s) on chest radiography and clinical signs and symptoms consistent with CABP with the need for hospitalization and IV therapy were enrolled in the studies. Treatment duration was 5 to 7 days. A switch to oral therapy was not allowed. The Modified Intent-to-Treat Efficacy (MITTE) population, included all patients who received any amount of study drug according to their randomized, treatment group and were in PORT (Pneumonia Outcomes Research Team) Risk Class III or IV.
(§3) The primary efficacy endpoint was the clinical response at the Test of Cure (TOC) visit in the co-primary Ce and MITTE populations (Table 4).

[12] = tested on: Klebsiella pneumoniae; test: as above; assay type: in vivo; conditions: ME patients
Method: as §2, §3

[13] = tested on: Haemophilus influenzae; test: as above; assay type: in vivo; conditions: ME patients
Method: as §2, §3

[14] = tested on: Staphylococcus aureus; test: as above; assay type: in vivo; conditions: ME patients
Method: as §2, §3

[15] = tested on: Escherichia coli; test: as above; assay type: in vivo; conditions: ME patients
Method: as §2, §3

[16] = tested on: MDRSP; test: Example 5 CAP study, outcome by baseline pathogen; assay type: in vivo, S. pneumoniae
Source text: as §1

[17] = tested on: MDRSP (multidrug-resistant); assay type: in vivo, Streptococcus pneumoniae; conditions: CABP, ME patients
Method: as §2, §3

[18] = human, in vivo
Method: (§5) Study-Drug: Ceftaroline fosamil was administered in two consecutive 300 mg intravenous (IV) infusions over 30 minutes, every 12 hours (q12h). The 600-mg dose of ceftaroline fosamil infused over 60 minutes was split into two infusions in order to maintain the blind. For subjects with moderate renal impairment (30 ml/min<CrCl≤50 ml/min), as estimated by the Cockroft-Gault formula, unblinded pharmacy staff or unblinded study staff could adjust the dose of ceftaroline fosamil to two consecutive 200 mg infusions and readjust dose to two 300 mg infusions when renal function improved (CrCl>50 mL/min). The duration of treatment was between 5 to 7 days.
(§6) All subjects who received any amount of study drug were included in the safety analysis. Safety measures included monitoring for adverse events (AE) up to TOC and serious adverse events (SAE) through LFU; recording vital signs, physical examination, electrocardiogram (ECG), and clinical laboratory findings (clinical chemistry, hematology, and urinalysis), at prespecified times throughout the study.

[19] = tested on: MSSA (methicillin-susceptible); test: Integrated Phase 3 CABP studies, clinical cure by infecting pathogen; assay type: in vivo, Staphylococcus aureus; conditions: ME patients
Method: as §2, §3

[20] = Example 4 CAP study, safety
Method: as §5, §6

[21] = human, in vivo; remark: listed apart in the source
Method: (§7) Study drug: Ceftaroline fosamil was administered in two consecutive 300 mg intravenous (IV) infusions over 30 minutes, every 12 hours (q12h). The 600-mg dose of ceftaroline fosamil infused over 60 minutes was split into two infusions in order to maintain the blind. For subjects with moderate renal impairment (30 mL/min<CrCl≤50 mL/min), as estimated by the Cockroft-Gault formula, unblinded pharmacy staff or unblinded study staff could adjust the dose of ceftaroline fosamil to two consecutive 200 mg infusions and readjust dose to two 300 mg infusions when renal function improved (CrCl>50 mL/min). The duration of treatment was between 5 to 7 days.
(§8) All subjects initially received two doses (500 mg every 12 hours) of oral adjunctive therapy with clarithromycin following randomization.
(§9) All subjects who received any amount of study drug were included in the safety analysis. Safety measures included monitoring for adverse events (AE) up to TOC and serious adverse events (SAE) through LFU; recording vital signs, physical examination, electrocardiogram (ECG), and clinical laboratory findings (clinical chemistry, hematology, and urinalysis); at prespecified times throughout the study.

[22] = tested on: community-acquired pneumonia (CAP); test: Example 4 Phase 3 study, ceftaroline vs ceftriaxone in CAP, efficacy; assay type: in vivo, human
Source text: The secondary objectives of the study were to evaluate the following: clinical response at end-of-therapy (EOT); the microbiological favorable outcome rate at TOC; the overall (clinical and radiographic) success rate at TOC; the clinical and microbiological response by pathogen at TOC; clinical relapse at late follow-up (LFU); microbiological reinfection/recurrence at LFU; and safety.
The following criteria were used for evaluation: The primary efficacy outcome measures were the pet-subject clinical cure rate at test-of-cure (TOC) in the CE and MITTE Populations Subjects were considered clinically cured at TOC if they had total resolution of all signs and symptoms of the baseline infection, or improvement of the infection such that no further antimicrobial therapy was necessary.
(§4) Non-inferiority was concluded if the lower limit of the 95% CI was higher than −10%.

[23] = tested on: MDRSP; test: Example 4 CAP study, outcome by baseline pathogen; assay type: in vivo, S. pneumoniae
Source text: as §1

[24] = tested on: Community-Acquired Bacterial Pneumonia (CABP); test: Two Phase 3 studies in CABP, clinical cure at TOC (single and integrated/combined); assay type: in vivo, human; conditions: for Combined clinical cure rate: combined data of the two CAP studies, TOC
Method: as §2, §3

[25] = tested on: community-acquired pneumonia (CAP); test: Example 5 Phase 3 study, ceftaroline vs ceftriaxone with adjunctive clarithromycin in CAP, efficacy; assay type: in vivo, human
Source text: The secondary objective of the study was to evaluate the following: the clinical response at end-of-therapy (EOT); the microbiological favorable outcome rate at TOC; the overall (clinical and radiographic) success rate at TOC; the clinical and microbiological response by pathogen at TOC; clinical relapse at late follow-up (LFU); microbiological reinfection/recurrence at LFU; and safety.
The primary efficacy outcome measures were the per-subject clinical cure rate at TOC in the CE and MITTE Populations. Subjects were considered clinically cured at TOC if they had total resolution of all signs and symptoms of the baseline infection, or improvement of the infection such that no further antimicrobial therapy was necessary.
as §4

[26] = Example 5 CAP study, safety
Method: as §7, §8, §9

[27] = tested on: CYP1A2, CYP2B6, CYP2C8, CYP2C9, CYP2CI9, or CYP3A4/5; test: CYP induction in human hepatocytes; assay type: in vitro ADME

## CO/N=C(\C(=O)N[C@@H]1C(=O)N2C(C(=O)O)=C(CSc3nc(=O)c(=O)[nH]n3C)CS[C@H]12)c1csc(N)n1 [Ceftriaxone, ceftriaxone, reference compound]
[1]; Example 5, ME
  Favorable Microbiological Outcome at TOC by Baseline Pathogen: 6/8 (75.0)
[1]; Example 5, ME Population
  Clinical Cure Rate at the TOC Visit by Baseline Pathogen: 6/8 (75.0)
[2]; Example 5, ME
  Favorable Microbiological Outcome at TOC by Baseline Pathogen: 18/27 (66.7)
[2]; Example 5, ME Population
  Clinical Cure Rate at the TOC Visit by Baseline Pathogen: 18/27 (66.7)
[3]; Example 5, ME
  Favorable Microbiological Outcome at TOC by Baseline Pathogen: 6/6 (100.0)
[3]; Example 5, ME Population
  Clinical Cure Rate at the TOC Visit by Baseline Pathogen: 5/6 (83.3)
[4]; Example 5, ME
  Favorable Microbiological Outcome at TOC by Baseline Pathogen: 9/10 (90.0)
[4]; Example 5, ME Population
  Clinical Cure Rate at the TOC Visit by Baseline Pathogen: 9/10 (90.0)
[5]; Example 5, ME
  Favorable Microbiological Outcome at TOC by Baseline Pathogen: 8/12 (66.7)
[5]; Example 5, ME Population
  Clinical Cure Rate at the TOC Visit by Baseline Pathogen: 7/12 (58.3)
[6]; Example 4, ME
  Favorable Microbiological Outcome at TOC by Baseline Pathogen: 11/12 (91.7)
[6]; Example 4, ME Population
  Clinical Cure Rate at the TOC Visit by Baseline Pathogen: 11/12 (91.7)
[7]; Example 4, ME
  Favorable Microbiological Outcome at TOC by Baseline Pathogen: 25/32 (78.1)
[7]; Example 4, ME Population
  Clinical Cure Rate at the TOC Visit by Baseline Pathogen: 23/32 (71.9)
[8]; Example 4, ME
  Favorable Microbiological Outcome at TOC by Baseline Pathogen: 7/7 (100.0)
[8]; Example 4, ME Population
  Clinical Cure Rate at the TOC Visit by Baseline Pathogen: 6/7 (85.7)
[9]; Example 4, ME
  Favorable Microbiological Outcome at TOC by Baseline Pathogen: 7/8 (87.5)
[9]; Example 4, ME Population
  Clinical Cure Rate at the TOC Visit by Baseline Pathogen: 7/8 (87.5)
[10]; Example 4, ME
  Favorable Microbiological Outcome at TOC by Baseline Pathogen: 11/15 (73.3)
[10]; Example 4, ME Population
  Clinical Cure Rate at the TOC Visit by Baseline Pathogen: 8/15 (53.3)
[11]
  Clinical cure rate by infecting pathogen: 41/59 (69.5%)
[12]
  Clinical cure rate by infecting pathogen: 10/12 (83.3%)
[13]
  Clinical cure rate by infecting pathogen: 17/20 (85.0%)
[14]
  Clinical cure rate by infecting pathogen: 15/27 (55.6%)
[15]
  Clinical cure rate by infecting pathogen: 9/12 (75.0%)
[16]; Example 5, ME
  Favorable Microbiological Outcome at TOC by Baseline Pathogen: 0
[16]; Example 5, ME Population
  Clinical Cure Rate at the TOC Visit by Baseline Pathogen: 0
[17]
  Clinical cure rate by infecting pathogen: 1/4 (25.0%)
[18]
  Adverse event: COPD: 5 (1.6) %
  Adverse event: Diarrhea: 9 (2.9) %
  Adverse event: Head ache: 5 (1.6) %
  Adverse event: Hypertension: 8 (2.6) %
  Adverse event: Pleural effusion: 7 (2.3) %
  Adverse event: Pneumonia: 4 (1.3) %
  study-drug-related TEAE: alanine aminotransferase increased: 1.0%
  study-drug-related TEAE: blood creatinine phosphokinase increased: 0.7%
  study-drug-related TEAE: heartache: 1.0%
  subjects with any study-drug-related TEAEs: 13.7%
[19]
  Clinical cure rate by infecting pathogen: 14/25 (56.0%)
[20]
  hemolytic anemia: No evidence of hemolytic anemia
  incidence of deaths: 2.0%
[21]
  Adverse event: Constipation: 5 (1.6) %
  Adverse event: Hypertension: 8 (2.6) %
  TEAEs assessed as drug related by the Investigators: 12.7%
  study-drug-related TEAE: headache: 0.0%
  study-drug-related TEAE: hepatic enzyme increased: 1.0%
  study-drug-related TEAE: sinus bradychardia: 1.0%
[22]; Example 4, CE population
  Clinical Success at the TOC Visit: 166 (77.2) %
[22]; Example 4, ME population
  Favorable Microbiological Outcome at the TOC Visit: 63 (82.9) %
[22]; Example 4, MITTE population
  Clinical Success at the TOC Visit: 206 (75.5) %
[23]; Example 4, ME
  Favorable Microbiological Outcome at TOC by Baseline Pathogen: 2/4 (50.0)
[23]; Example 4, ME Population
  Clinical Cure Rate at the TOC Visit by Baseline Pathogen: 1/4 (25.0)
[24]; CABP Study 1, CE population
  Clinical cure rate at TOC: 183/234 (78.2%)
[24]; CABP Study 1, MITTE population
  Clinical cure rate at TOC: 233/300 (77.7%)
[24]; CABP Study 2, CE population
  Clinical cure rate at TOC: 166/215 (77.2%)
[24]; CABP Study 2, MITTE population
  Clinical cure rate at TOC: 206/273 (75.5%)
[24]; Integrated Studies, CE population, 5 to 7 days of therapy
  Clinical cure rate at TOC: 349/449 (77.7%)
[24]; Integrated Studies, MITTE population
  Clinical cure rate at TOC: 439/573 (76.6%)
[24]; CE
  Combined clinical cure rate: 349/449 (77.7) %
[24]; ME
  Combined clinical cure rate: 111/147 (75.5) %
[24]; MITTE
  Combined clinical cure rate: 439/573 (76.6) %
[24]; mMITTE
  Combined clinical cure rate: 126/168 (75.0) %
[25]; Example 5, CE population
  Clinical Success at the TOC Visit: 183 (78.2) %
[25]; Example 5, ME population
  Favorable Microbiological Outcome at the TOC Visit: 56 (78.9) %
[25]; Example 5, MITTE population
  Clinical Success at the TOC Visit: 233 (77.7) %
[25]; Example 5, mMITTE population
  Favorable Microbiological Outcome at the TOC Visit: 63 (78.8) %
[26]
  hemolytic anemia: No evidence of hemolytic anemia
  percentage of deaths: 2.6%

## CCO/N=C(\C(=O)N[C@H](C(=O)[O-])[C@@H]1NC(C(=O)[O-])=C(Sc2nc(-c3cc[n+](C)cc3)cs2)CS1)c1nsc(N)n1.[H+] [ceftaroline M-1]
[27]
  induction of CYP isoenzymes: not inducers

Source: patent US20180303853A1, “COMPOSITIONS AND METHODS FOR TREATING BACTERIAL INFECTIONS USING CEFTAROLINE” (priority 2017, published 2018)
